Experimental data as given in paper PMC2631625 (Bioorganic & medicinal chemistry letters, 2008).

Target: CB1 receptors (Rattus norvegicus, UniProt P20272)
Test: Inhibition of [3H]SR141716 binding in homogenates of rat cerebellum
Settings: [3H]SR141716 radioligand

Sequence of CB1 receptors (P20272 whole entry): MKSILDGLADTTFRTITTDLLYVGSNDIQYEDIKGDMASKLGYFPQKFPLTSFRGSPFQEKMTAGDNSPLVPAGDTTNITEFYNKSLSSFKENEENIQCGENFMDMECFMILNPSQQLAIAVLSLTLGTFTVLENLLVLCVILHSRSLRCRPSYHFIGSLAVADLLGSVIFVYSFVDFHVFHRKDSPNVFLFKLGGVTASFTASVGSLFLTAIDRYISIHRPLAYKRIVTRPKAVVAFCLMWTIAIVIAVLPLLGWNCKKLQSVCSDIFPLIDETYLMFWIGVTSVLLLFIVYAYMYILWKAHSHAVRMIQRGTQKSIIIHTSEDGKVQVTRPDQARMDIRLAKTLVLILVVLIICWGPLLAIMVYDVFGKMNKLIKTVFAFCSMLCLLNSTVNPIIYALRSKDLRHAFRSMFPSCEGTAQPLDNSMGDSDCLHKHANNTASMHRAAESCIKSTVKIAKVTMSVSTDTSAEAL

Compound	binding affinity at CB1 receptors (in words)
O=C(NN1CCCCC1)c1nnn(-c2ccc(Cl)cc2)c1-c1ccc(Cl)cc1 [Compound 9]	low affinity
Clc1ccc(-c2cnnn2-c2ccc(Cl)cc2)cc1 [Compound 7a]	low affinity
Clc1ccc(-c2cnnn2-c2ccc(Cl)cc2Cl)cc1 [Compound 7b]	low affinity
O=C(OCc1ccccc1)c1nnn(-c2ccc(Cl)cc2Cl)c1-c1ccc(Cl)cc1 [Compound 15]	somewhat diminished
